Here are results for one molecule from patent US6555570B2, “Compounds with growth hormone releasing properties” (Novo Nordisk A/S, priority 1995, dated 2003).

Structures are written as SMILES. Where a name gives a salt, the structure may show the parent alone.

As a reminder, the melting point is the temperature of the solid-liquid transition.

Molecule `CN(C(=O)[C@@H](Cc1ccc2ccccc2c1)N(C)C(=O)/C=C/CC(C)(C)N)[C@@H](CNC(=S)NC1CC1)Cc1ccccc1` (as salt: trifluoroacetic acid salt) came in with a melting point of 138 to 145 °C.
